From ChEMBL document CHEMBL1153012, “Synthesis and antibacterial activity of novel 5-(4-methyl-1H-1,2,3-triazole) methyl oxazolidinones” (2009)
In brackets after ≈: the same amount, converted by molar mass.

How the values were obtained:
Type in all cases: functional
Haemophilus influenzae [1] = assay: Antibacterial activity against Haemophilus influenzae ATCC 49247 by agar dilution method
Staphylococcus [2] = assay: Antibacterial activity against methicillin-sensitive coagulase-negative Staphylococcus by agar dilution method
Staphylococcus aureus [3] = assay: Antibacterial activity against methicillin-resistant Staphylococcus aureus by agar dilution method
Staphylococcus aureus [4] = assay: Antibacterial activity against methicillin-susceptible Staphylococcus aureus by agar dilution method
Enterococcus [5] = assay: Antibacterial activity against vancomycin-resistant Enterococcus by agar dilution method
Enterococcus [6] = assay: Antibacterial activity against vancomycin-sensitive Enterococcus by agar dilution method
Staphylococcus aureus [7] = assay: Antibacterial activity against Staphylococcus aureus ATCC 25923 by agar dilution method in presence of human plasma; settings: ATCC 25923, Plasma
Haemophilus influenzae [8] = assay: Antibacterial activity against Haemophilus influenzae isolate 283 by agar dilution method
Haemophilus influenzae [9] = assay: Antibacterial activity against Haemophilus influenzae isolate 285 by agar dilution method
Escherichia coli = assay: Antibacterial activity against Escherichia coli ATCC 25922 by agar dilution method
Streptococcus pneumoniae = assay: Antibacterial activity against Streptococcus pneumoniae by agar dilution method
Staphylococcus [10] = assay: Antibacterial activity against methicillin resistant coagulase-negative Staphylococcus by agar dilution method
Moraxella catarrhalis = assay: Antibacterial activity against Moraxella catarrhalis by agar dilution method
Haemophilus influenzae [11] = assay: Antibacterial activity against Haemophilus influenzae isolate 280 by agar dilution method
Haemophilus influenzae [12] = assay: Antibacterial activity against Haemophilus influenzae isolate 282 by agar dilution method
Staphylococcus aureus [13] = assay: Antibacterial activity against Staphylococcus aureus ATCC 25923 by agar dilution method

SMILES: CCCCCCC(=O)N1CCN(c2ccc(N3C[C@H](Cn4cc(C)nn4)OC3=O)cc2F)CC1
- MIC (Haemophilus influenzae [1]): > 64 mg/L
- MIC (Staphylococcus [2]): 4 mg/L (≈ 8.46 µM)
- MIC (Staphylococcus aureus [3]): 8 mg/L (≈ 16.9 µM)
- MIC (Staphylococcus aureus [4]): 8 mg/L (≈ 16.9 µM)
- MIC (Enterococcus [5]): 4 mg/L (≈ 8.46 µM)
- MIC (Enterococcus [6]): 4 mg/L (≈ 8.46 µM)
- MIC (Staphylococcus aureus [7]): > 64 mg/L
- MIC (Haemophilus influenzae [8]): > 64 mg/L
- MIC (Haemophilus influenzae [9]): > 64 mg/L
- MIC (Escherichia coli): > 64 mg/L
- MIC (Streptococcus pneumoniae): 8 mg/L (≈ 16.9 µM)
- MIC (Staphylococcus [10]): 8 mg/L (≈ 16.9 µM)
- MIC (Moraxella catarrhalis): 64 mg/L (≈ 135 µM)
- MIC (Haemophilus influenzae [11]): > 64 mg/L
- MIC (Haemophilus influenzae [12]): > 64 mg/L
- MIC (Staphylococcus aureus [13]): 8 mg/L (≈ 16.9 µM)

SMILES: Cc1cn(C[C@H]2CN(c3ccc(N4CCN(C(=O)C5CCC5)CC4)c(F)c3)C(=O)O2)nn1
- MIC (Haemophilus influenzae [1]): 32 mg/L (≈ 72.3 µM)
- MIC (Staphylococcus [2]): 2 mg/L (≈ 4.52 µM)
- MIC (Staphylococcus aureus [3]): 2 mg/L (≈ 4.52 µM)
- MIC (Staphylococcus aureus [4]): 2 mg/L (≈ 4.52 µM)
- MIC (Enterococcus [5]): 2 mg/L (≈ 4.52 µM)
- MIC (Enterococcus [6]): 2 mg/L (≈ 4.52 µM)
- MIC (Staphylococcus aureus [7]): 16 mg/L
- MIC (Haemophilus influenzae [8]): 32 mg/L (≈ 72.3 µM)
- MIC (Haemophilus influenzae [9]): 32 mg/L (≈ 72.3 µM)
- MIC (Escherichia coli): > 64 mg/L
- MIC (Streptococcus pneumoniae): 4 mg/L (≈ 9.04 µM)
- MIC (Staphylococcus [10]): 2 mg/L (≈ 4.52 µM)
- MIC (Moraxella catarrhalis): 32 mg/L (≈ 72.3 µM)
- MIC (Haemophilus influenzae [11]): 32 mg/L (≈ 72.3 µM)
- MIC (Haemophilus influenzae [12]): 32 mg/L (≈ 72.3 µM)
- MIC (Staphylococcus aureus [13]): 4 mg/L (≈ 9.04 µM)

SMILES: CCCCCC(=O)N1CCN(c2ccc(N3C[C@H](Cn4cc(C)nn4)OC3=O)cc2F)CC1
- MIC (Haemophilus influenzae [1]): > 64 mg/L
- MIC (Staphylococcus [2]): 2 mg/L (≈ 4.36 µM)
- MIC (Staphylococcus aureus [3]): 4 mg/L (≈ 8.72 µM)
- MIC (Staphylococcus aureus [4]): 2 mg/L (≈ 4.36 µM)
- MIC (Enterococcus [5]): 2 mg/L (≈ 4.36 µM)
- MIC (Enterococcus [6]): 2 mg/L (≈ 4.36 µM)
- MIC (Staphylococcus aureus [7]): > 64 mg/L
- MIC (Haemophilus influenzae [8]): > 64 mg/L
- MIC (Haemophilus influenzae [9]): > 64 mg/L
- MIC (Escherichia coli): > 64 mg/L
- MIC (Streptococcus pneumoniae): 8 mg/L (≈ 17.4 µM)
- MIC (Staphylococcus [10]): 2 mg/L (≈ 4.36 µM)
- MIC (Moraxella catarrhalis): > 64 mg/L
- MIC (Haemophilus influenzae [11]): > 64 mg/L
- MIC (Haemophilus influenzae [12]): > 64 mg/L
- MIC (Staphylococcus aureus [13]): 4 mg/L (≈ 8.72 µM)

SMILES: Cc1cn(C[C@H]2CN(c3ccc(N4CCN(C(=O)Cc5ccccc5)CC4)c(F)c3)C(=O)O2)nn1
- MIC (Haemophilus influenzae [1]): > 64 mg/L
- MIC (Staphylococcus [2]): 2 mg/L (≈ 4.18 µM)
- MIC (Staphylococcus aureus [3]): 2 mg/L (≈ 4.18 µM)
- MIC (Staphylococcus aureus [4]): 2 mg/L (≈ 4.18 µM)
- MIC (Enterococcus [5]): 1 mg/L (≈ 2.09 µM)
- MIC (Enterococcus [6]): 2 mg/L (≈ 4.18 µM)
- MIC (Staphylococcus aureus [7]): > 64 mg/L
- MIC (Haemophilus influenzae [8]): > 64 mg/L
- MIC (Haemophilus influenzae [9]): > 64 mg/L
- MIC (Escherichia coli): > 64 mg/L
- MIC (Streptococcus pneumoniae): 2 mg/L (≈ 4.18 µM)
- MIC (Staphylococcus [10]): 2 mg/L (≈ 4.18 µM)
- MIC (Moraxella catarrhalis): 16 mg/L (≈ 33.4 µM)
- MIC (Haemophilus influenzae [11]): > 64 mg/L
- MIC (Haemophilus influenzae [12]): > 64 mg/L
- MIC (Staphylococcus aureus [13]): 4 mg/L (≈ 8.36 µM)

SMILES: Cc1cn(C[C@H]2CN(c3ccc(N4CCN(C(=O)CC5CC6CCC5C6)CC4)c(F)c3)C(=O)O2)nn1 (stereo partly drawn)
- MIC (Haemophilus influenzae [1]): > 64 mg/L
- MIC (Staphylococcus [2]): 2 mg/L (≈ 4.03 µM)
- MIC (Staphylococcus aureus [3]): 4 mg/L (≈ 8.05 µM)
- MIC (Staphylococcus aureus [4]): 2 mg/L (≈ 4.03 µM)
- MIC (Enterococcus [5]): 2 mg/L (≈ 4.03 µM)
- MIC (Enterococcus [6]): 2 mg/L (≈ 4.03 µM)
- MIC (Staphylococcus aureus [7]): > 64 mg/L
- MIC (Haemophilus influenzae [8]): > 64 mg/L
- MIC (Haemophilus influenzae [9]): > 64 mg/L
- MIC (Escherichia coli): > 64 mg/L
- MIC (Streptococcus pneumoniae): 16 mg/L (≈ 32.2 µM)
- MIC (Staphylococcus [10]): 2 mg/L (≈ 4.03 µM)
- MIC (Moraxella catarrhalis): 64 mg/L (≈ 129 µM)
- MIC (Haemophilus influenzae [11]): > 64 mg/L
- MIC (Haemophilus influenzae [12]): > 64 mg/L
- MIC (Staphylococcus aureus [13]): 4 mg/L (≈ 8.05 µM)

SMILES: Cc1cn(C[C@H]2CN(c3ccc(N4CCN(C(=O)C5CCCC5)CC4)c(F)c3)C(=O)O2)nn1
- MIC (Haemophilus influenzae [1]): 32 mg/L (≈ 70.1 µM)
- MIC (Staphylococcus [2]): 2 mg/L (≈ 4.38 µM)
- MIC (Staphylococcus aureus [3]): 2 mg/L (≈ 4.38 µM)
- MIC (Staphylococcus aureus [4]): 2 mg/L (≈ 4.38 µM)
- MIC (Enterococcus [5]): 2 mg/L (≈ 4.38 µM)
- MIC (Enterococcus [6]): 2 mg/L (≈ 4.38 µM)
- MIC (Staphylococcus aureus [7]): 32 mg/L
- MIC (Haemophilus influenzae [8]): 32 mg/L (≈ 70.1 µM)
- MIC (Haemophilus influenzae [9]): 32 mg/L (≈ 70.1 µM)
- MIC (Escherichia coli): > 64 mg/L
- MIC (Streptococcus pneumoniae): 4 mg/L (≈ 8.76 µM)
- MIC (Staphylococcus [10]): 2 mg/L (≈ 4.38 µM)
- MIC (Moraxella catarrhalis): 32 mg/L (≈ 70.1 µM)
- MIC (Haemophilus influenzae [11]): 32 mg/L (≈ 70.1 µM)
- MIC (Haemophilus influenzae [12]): 32 mg/L (≈ 70.1 µM)
- MIC (Staphylococcus aureus [13]): 4 mg/L (≈ 8.76 µM)

SMILES: Cc1cn(C[C@H]2CN(c3ccc(N4CCN(C(=O)/C=C/c5ccccc5)CC4)c(F)c3)C(=O)O2)nn1
- MIC (Haemophilus influenzae [1]): > 64 mg/L
- MIC (Staphylococcus [2]): 8 mg/L (≈ 16.3 µM)
- MIC (Staphylococcus aureus [3]): 8 mg/L (≈ 16.3 µM)
- MIC (Staphylococcus aureus [4]): 16 mg/L (≈ 32.6 µM)
- MIC (Enterococcus [5]): 8 mg/L (≈ 16.3 µM)
- MIC (Enterococcus [6]): 8 mg/L (≈ 16.3 µM)
- MIC (Staphylococcus aureus [7]): > 64 mg/L
- MIC (Haemophilus influenzae [8]): > 64 mg/L
- MIC (Haemophilus influenzae [9]): > 64 mg/L
- MIC (Escherichia coli): > 64 mg/L
- MIC (Streptococcus pneumoniae): 8 mg/L (≈ 16.3 µM)
- MIC (Staphylococcus [10]): 8 mg/L (≈ 16.3 µM)
- MIC (Moraxella catarrhalis): 64 mg/L (≈ 130 µM)
- MIC (Haemophilus influenzae [11]): > 64 mg/L
- MIC (Haemophilus influenzae [12]): > 64 mg/L
- MIC (Staphylococcus aureus [13]): 16 mg/L (≈ 32.6 µM)

SMILES: Cc1cn(C[C@H]2CN(c3ccc(N4CCNCC4)c(F)c3)C(=O)O2)nn1.O=C(O)C(F)(F)F
- MIC (Haemophilus influenzae [1]): 32 mg/L
- MIC (Staphylococcus [2]): 4 mg/L
- MIC (Staphylococcus aureus [3]): 4 mg/L
- MIC (Staphylococcus aureus [4]): 4 mg/L
- MIC (Enterococcus [5]): 8 mg/L
- MIC (Enterococcus [6]): 4 mg/L
- MIC (Staphylococcus aureus [7]): 32 mg/L
- MIC (Haemophilus influenzae [8]): 32 mg/L
- MIC (Haemophilus influenzae [9]): 32 mg/L
- MIC (Escherichia coli): > 64 mg/L
- MIC (Streptococcus pneumoniae): 2 mg/L
- MIC (Staphylococcus [10]): 4 mg/L
- MIC (Moraxella catarrhalis): 16 mg/L
- MIC (Haemophilus influenzae [11]): 32 mg/L
- MIC (Haemophilus influenzae [12]): 32 mg/L
- MIC (Staphylococcus aureus [13]): 4 mg/L
